Legend:
RPTEC/hTERT1 cells = experiment: Quantitative RT-PCR of Nrf2 and HO1 in RPTEC/hTERT1 cells; assay type: cell-based, human; details: in vitro
Method: FIG. 6. KW6002 alleviates the cisplatin-induced nephrotoxicity associated with apoptosis, lipid metabolism, and oxidative stress. (A) Tail moment assessed by comet assay; 50 cells/condition were analyzed. (B and C) KW6002 attenuates cisplatin-induced renal lipid accumulation, assessed by Red Oil staining. […] Results are the mean±SEM (n=6-9 mice/group). (F-H) KW6002 attenuated cisplatin-induced oxidative stress in RPTEC/hTERT1 cells. (F and G) Gene expression of Nrf2 (F) and HO1 (G). […] Results are the mean±SEM (n=3 independent experiments).
Total RNA from kidney samples was extracted with phenol/chloroform and subsequently precipitated in isopropanol as described previously (71). Total RNA from cultured renal cells was extracted using RNeasy Mini kit (Qiagen) following manufacturer's recommendations.
Reverse transcription was performed on 1 μg of RNA using high-capacity cDNA reverse transcription kit (Thermo Fisher), according the manufacturer's recommendation. Real time PCR was performed on a StepOne device using Taqman Gene Expression Master Mix (Thermo Fisher), following manufacturer's recommendations. […]

H1975 cells = experiment: Cell efflux (flow cytometry) in H1975 cells; assay type: cell-based; details: cancer cells in response to cisplatin, data not shown
Method: The basic cell efflux function was assessed using an EFLUXX-ID Green Multidrug Resistance Assay Kit (ENZO Life Sciences). Briefly, 2.5×10^5 cells/condition were collected, washed with PBS, and incubated with the EFLUXX-ID Green Detection Reagent for 30 minutes at 37° C., and then efflux was measured immediately by flow cytometry (CytoFLEX LX, Beckman Coulter). All experiments were performed in triplicate, with the measurement of 10,000 individual cells. Data were analyzed using Kaluza Analysis Software (Beckman Coulter).

LLC1 cells [1] = experiment: Caspase 3/7 activity in LLC1 cells; assay type: cell-based, mouse
Method: (§1) FIG. 7. […] Caspase 3/-7 activity (n=3 independent experiments) (A) and the number of γH2AX nuclear foci (n=36-63 nuclei/group) (B) were determined. […] Results are expressed as the mean±SEM (n=3 independent experiments). (E) Tail moment was assessed by comet assay. A total of 50 cells per condition were analyzed. *** P<0.001; 1-way ANOVA followed by Tukey's post hoc test. […] (I) KW6002 increased yH2AX expression in tumors from mice of the LLC1 syngeneic model. Quantification of nuclear yH2AX expression.
Cells were cultured in DMEM/F12 medium (Dulbecco's modified Eagle's medium and Ham's F12 medium, Thermo Fisher) supplemented with 1% penicillin/streptomycin, 5 pmol/L triiodo-L-thyronine, 10 ng/ml recombinant human epidermal growth factor, 3.5 μg/mL ascorbic acid, 5.0 μg/mL human transferrin, 5.0 μg/mL insulin, 25 ng/mL prostaglandin E1, 25 ng/ml hydrocortisone, 8.65 ng/mL sodium selenite, 0.1 mg/mL G418 and 1.2 g/L sodium bicarbonate (Sigma). Lewis lung carcinoma mouse LLC1 cells were cultured in DMEM glutamax (Thermo Fisher) containing 10% fetal calf serum and 1% penicillin/streptomycin. Cells were cultured at 37° C. in a humidified atmosphere of 5% CO2.
Apoptosis was assessed in RPTEC/hTERT and LLC1 cell lysates using the caspase-Glo 3/7 assay (Promega) according to manufacturer's recommendations.

[2] = Cumulative model of cisplatin toxicity; assay type: in vivo; details: FIG. 5
Text: FIG. 5. […] BUN quantification.

LLC1 cells [3] = experiment: γH2AX immunostaining in LLC1 cells; assay type: cell-based, mouse; details: 2 μM cisplatin, 10 nM KW-6002, 6 hours, FIG. 7B
Method: as §1
Cells were fixed with 4% paraformaldehyde, permeabilized with DPBS/0.1% Triton X100 and incubated with γH2AX (Ser139) antibody (1/400; #9718, Cell Signaling Technology) and then, Alexa Fluor 488 secondary antibody (1/200; Life Technologies). Samples were examined on an immunofluorescence microscope (Leica™ DMI8) and γH2AX nuclear foci were counted.

RPTEC/hTERT cells = experiment: Cell concentrations of platinum; assay type: cell-based, human; details: cisplatin 50 μM, KW-6002 25 μM, 48 hours
Method: Tissues (35 mg) and cell pellets were first mineralized with hydrochloric acid (30% Suprapur, Merck) or nitric acid (69.5%, Carlo Erba), respectively. Analysis of tissue samples was performed by Graphite Furnace Atomic Absorption Spectrometry (GF-AAS) using an Aanalyst 800 (Perkin Elmer)., while cell samples analysis was performed by Inductively Coupled Plasma Mass Spectrometry (ICP-MS) using an ICAP-Qc (Thermo Scientific). Platinum concentration was finally normalized to the accurately measured kidney mass, or to the number of cells previously assessed.

**Q.** Which results are given for `CCn1c(=O)c2c(nc(/C=C/c3ccc(OC)c(OC)c3)n2C)n(CC)c1=O` [KW-6002, 8-[(E)-2-(3,4-dimethoxyphenyl)vinyl]-1,3-diethyl-7-methyl-3,7-dihydro-1H-purine-2,6-dione]?
**A.** cisplatin-induced increase in expression of Nrf2 (RPTEC/hTERT1 cells; FIG. 6F): normalized; cisplatin-induced increase in expression of HO1 (RPTEC/hTERT1 cells; FIG. 6G): normalized; efflux (H1975 cells): significantly reduced; apoptosis: caspase 3/-7 activity (LLC1 cells [1]; 2 μM cisplatin, 10 Nm KW6002, 24 hours, FIG. 7A): even potentiated the efficacy of cisplatin; LLC1 sensitivity to cisplatin, including apoptosis and/or DNA damage (LLC1 cells [1]; in vitro, data not shown): likely increases LLC1 sensitivity to cisplatin; BUN quantification, cisplatin-induced kidney injury [2]: protects from cisplatin-induced kidney injury; DNA damage: γH2AX nuclear foci (LLC1 cells [3]): increased number of H2AX+ cells; accumulation of cisplatin (platinum) in cells (RPTEC/hTERT cells): limits the accumulation of cisplatin
